Reference: US20140107344A1, “ZINC SALT OF ISOTHIAZOLONE COMPOUND, METHOD FOR REDUCING IRRITATION CAUSED BY ISOTHIAZOLONE COMPOUND, ANTIBACTERIAL AND ANTIFUNGAL METHOD USING ZINC SALT OF ISOTHIAZOLONE COMPOUND, AND ANTIBACTERIAL AND ANTIFUNGAL COMPOSITION” (Nippon Soda Co., Ltd., priority 2007, published 2014)
Converted amounts (≈) assume the structure as drawn. “And” between values parts separate entries of the source, which are not always exact repeats. Equal entries are not always repeated.

Key:
[1] = test system: ear auricle of a mouse; assay: Local lymph node proliferation assay using a mouse (ear auricle irritation); assay type: in vivo; conditions: for Thickness of ear auricle: 50 μL/mouse per day on both ears, once a day for 3 days, day of measurement not given; for Extent of hyperplasia: ear auricle thickness on day 3 minus day 1, 0.1 mm or greater = irritating; for General symptoms: observation during administration period
Description: (Local Lymph Node Proliferation Assay using a Mouse)
(1) Administration Solution
(A) An administration solution A prepared by suspending the BIT/Zn salt obtained in Example 1 in a mixed solvent, which was composed of N,N-dimethylacetamide, acetone and ethanol and which contained the respective component at a ratio of 4:3:3 (volume ratio) (hereafter, frequently referred to as “DAE”), so as to achieve a 5% by weight solution.
(B) An administration solution B prepared by dissolving BIT in DAE so as to achieve a 5% by weight solution.
(2) Application of an Administration Solution
12.5 μL of the administration solutions A and B were respectively applied inside and outside the ear auricle of a mouse using a micropipette. This process was carried out for both ears, once a day, and for 3 days. The applied dose was 50 μL/mouse for one day.
(3) Measurement of Body Weight
Regarding the mouse provided for the experiment, the body weight thereof was measured just before the application on day 0 of the experiment, on day 3 of the experiment, and just before the dissection thereof (on day 6).
(4) Measurement of Ear Auricle Thickness
Regarding the mouse provided for the experiment, the ear auricle thickness thereof was measured on day 1 and on day 3 of the experiment, using a digital thickness gage manufactured by Teclock Corporation.
The extent of hyperplasia was calculated by the formula: (ear auricle thickness on day 3 of the experiment)—(ear auricle thickness on day 1 of the experiment). When the extent of hyperplasia was 0.1 mm or greater, it was evaluated as “irritating”.
(5) Observation of Symptoms
During the administration period, the observations were made once just before the administration and once 3 hours after the administration. During other periods, the observations were made once a day. The presence and absence of erythema in the ear auricle was observed just before the administrations on day 1, day 2 and on day 3 of the experiment, and the observations made were evaluated in scores as 0 to 16 grades.
Method for Evaluating Mouse Eears
Grades 0-9: Evaluated as possibly not irritating to humans.
Grades 10-15: Evaluated as possibly slightly irritating to humans.
Grades greater than grade 15: Evaluated as possibly irritating to humans.

[2] = test system: Escherichia coli NBRC 3972; assay: Antibacterial test using a coated film (JIS Z 2801), Escherichia coli; assay type: cell-based
Experimental: (§1) Regarding the BIT/Zn salt obtained in Example 1, an antibacterial test was carried out using a coated film.
(§2) For the samples, 2 types of samples were used; i.e., A) the BIT/Zn salt (in the form of a powder containing 79.7% of active ingredients) and B) a BIT material/SC formulation (i.e., Bestcide-NS manufactured by Nippon Soda Co., Ltd. containing 15.0% of active ingredients). For the coating material, an aqueous acrylic emulsion coating material manufactured by Nippe Home Products Co., Ltd. (a preservative-free product) was used.
(§3) (1) Preparation of Test Specimen
(§4) To a blank coating material, either A) 0.019% by weight of the BIT/Zn salt or B) 0.1% by weight of the BIT technical product/SC formulation was added, and the resultant was then stirred and mixed. The coating material to which the BIT/Zn salt was added was further subjected to an ultrasonic treatment to prepare a uniform dispersion.
(§5) Subsequently, the obtained drug-added coating materials were applied onto both sides ([…] for each side) of a sterilized filter paper having a size of 50×50 mm, and the resultant was cured at room temperature for 24 hours. Test specimens where no drug was added were also prepared in the same manner.
(§6) The test was carried out in accordance with JIS Z 2801. In other words, two strains of bacteria were used for the test; i.e., Escherichia coli NBRC 3972 (Escherichia coli) and Staphylococcus aureus NBRC 12732 (Staphylococcus aureus), and their cultures preincubated in an NA medium were diluted with a 500-fold diluted NB liquid medium to prepare bacterial suspensions for inoculation. 0.4 ml of the bacterial suspension was inoculated onto each test specimen (i.e., 50×50 mm sized filter paper with a coated film thereon), and the resultant was covered with a covering film (which was already sterilized and having a size of 45×45 mm). The prepared test specimen was put in a petri dish and incubated for 24 hours in a thermo-hygrostat at a temperature of 35±1° C. and a relative humidity of 95%. Thereafter, the sample surface and the covering film were washed using 10 ml of an SCDLP medium, and the number of bacterial cells per 1 ml of the washed out liquid was calculated by counting the number of colonies using an NA medium.
A coated film obtained using a blank coating material was used as a control.
The number of bacterial cells was observed, just after the inoculation (A), and after 24 hours of incubation (B).
2) Requirements for a Valid Test
1. {(A−B)/A}×100≦90 [A: just after the inoculation, B: after 24 hours of incubation]
2. Results of the viable cell count obtained in (A) were within a range from 1.0 to 5.0×10^5 cells per petri dish.
3. Results of the viable cell count obtained in the blank (untreated) were 1.0×10^3 or more cells per petri dish. […]

[3] = test system: Staphylococcus aureus NBRC 12732; assay: Antibacterial test using a coated film (JIS Z 2801), Staphylococcus aureus; assay type: cell-based
Experimental: as §1, §2, §3, §4, §5
as §6, with “The prepared test specimen was put in a petri dish and incubated for 24 hours in a thermo-hygrostat at a temperature of 35±1° C. and a relative humidity of 95%.” left out, “medium. […]” for “medium.”

[4] = test system: Aspergillus niger NBRC6342; assay: Test for determining minimum concentration for inhibition of growth (agar plate dilution method), Aspergillus niger; assay type: cell-based; conditions: for MIC value (mM/L) Aspergillus niger NBRC6342: MIC on a molar basis, based on the molecular weights; for MIC value: concentration of active ingredient, potato dextrose agar, strain not given in Table 2
Description: (§7) (Test for Determining Minimum Concentration for Inhibition of Growth)
(§8) For the test samples, 3 types of samples were used; i.e., the BIT/Zn salt obtained in Example 1 (in the form of a powder containing 79.7% of active ingredients), a BIT material/SC formulation (i.e., Bestcide-NS manufactured by Nippon Soda Co., Ltd. containing 33% of active ingredients), and ZnO (zinc oxide) of 99.0% or greater (manufactured by Wako Pure Chemical Industries, Ltd.). Evaluations were made by conducting an agar plate dilution method using a potato dextrose agar medium. Two fungal strains; i.e., Aspergillus niger NBRC6342 and Cladosporium cladosporioides NBRC6348, were used as microorganisms for the test, and the BIT/Zn salt, BIT and ZnO were used at a concentration of 50 to 1,000 mg/L. The results are shown in Table 2 and Table 3. It should be noted that in Table 3, the results on the analysis of minimum inhibitory concentration (MIC) based on the molecular weights (i.e., MIC values on a molar basis) are shown.

[5] = Thermal stability test; assay type: physicochemical
Experimental: A test was carried out on the thermal stability of the BIT/Zn salt obtained in Example 1 and of BIT. As a result, BIT broke down at 300° C. or less, whereas the BIT/Zn salt remained stable even at 400° C.

[6] = test system: Cladosporium cladosporioides NBRC6348; assay: Test for determining minimum concentration for inhibition of growth (agar plate dilution method), Cladosporium cladosporioides; assay type: cell-based; conditions: MIC on a molar basis, based on the molecular weights
Description: as §7, §8

[7] = coated film, 24 hours at 35±1° C., 0.019% by weight BIT/Zn salt or 0.1% by weight BIT/SC in coating material
[8] = larger values indicate stronger antibacterial activity
[9] = logarithm of viable cell count after 24 hours

O=c1[n-]sc2ccccc12.O=c1[n-]sc2ccccc12.[Zn+2] [BIT/Zn salt, zinc salt of BIT]
Thickness of ear auricle ([1]; 5% by weight in DAE): 0.34 mm | Extent of hyperplasia ([1]; 5% by weight in DAE): 0.04 mm | General symptoms ([1]; 5% by weight in DAE): attachment of white powder on the ear auricle was observed 3 hours after the administration | Number of viable cells, Escherichia coli [2, 7]: <10 Number of cells per petri dish | Antibacterial activity, Escherichia coli [2, 8]: 4.9 | Logarithmic value, Escherichia coli [2, 9]: 1.0 | Antibacterial activity compared with BIT ([2]; statement covers both bacterial strains of Table 4): same level of antibacterial activity as that of BIT | Number of viable cells, Staphylococcus aureus [3, 7]: <10 Number of cells per petri dish | Antibacterial activity, Staphylococcus aureus [3, 8]: 3.6 | Logarithmic value, Staphylococcus aureus [3, 9]: 1.0 | MIC value (mM/L) Aspergillus niger NBRC6342 [4]: 2.0 mM/L | MIC value [4]: 750 mg/L | Activity level ([4]; statement covers both fungal strains): satisfactory to be put into practice | Thermal stability (temperature of breakdown) [5]: > 400 °C | MIC value (mM/L) Cladosporium cladosporioides NBRC6348 [6]: <0.1 mM/L

O=c1[nH]sc2ccccc12 [BIT, 1,2-benzoisothiazolin-3-one]
Thickness of ear auricle ([1]; 5% by weight in DAE): 0.39 mm | Extent of hyperplasia ([1]; 5% by weight in DAE): 0.1 mm and 0.10 mm | General symptoms ([1]; 5% by weight in DAE): no abnormality was observed | Grade for erythema ([1]; 5% by weight in DAE, score 0 to 16, 0-9 possibly not irritating, 10-15 slightly irritating, >15 irritating to humans): 16 | Evaluation of irritation ([1]; criterion: extent of hyperplasia 0.1 mm or greater): irritating | MIC value (mM/L) Aspergillus niger NBRC6342 [4]: 1.3 mM/L | MIC value [4]: 200 mg/L (≈ 1320 µM) | Thermal stability (temperature of breakdown) [5]: ≤ 300 °C | MIC value (mM/L) Cladosporium cladosporioides NBRC6348 [6]: <0.3 mM/L

[O]=[Zn] [ZnO, zinc oxide]
MIC value (mM/L) Aspergillus niger NBRC6342 [4]: >12.3 mM/L | MIC value [4]: >1,000 mg/L | MIC value (mM/L) Cladosporium cladosporioides NBRC6348 [6]: 6.10 mM/L
